# Measured values published in PubChem BioAssay AID248 (DTP/NCI, 2004).
# Values joined by “and” are separate entries in the source; they are usually repeats but may differ in a detail not shown here. Equal values may be shown once. Inconclusive results and toxic doses are left out.
# Tested on: L1210 leukemia ip in BDF1 mice, survival T/C
# Assay: NCI In Vivo Anticancer Drug Screen. Data for tumor model L1210 Leukemia (intraperitoneal) in B6D2F1 (BDF1) mice
# Conditions: endpoint: mean survival time, higher = longer survival
# Outline: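 Each compound was tested against a transplantable tumor grown in mice. The endpoint was survival, with treated animals benchmarked against vehicle controls as a simple ratio.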
# [1] = dose: 25.0 mg/kg/injection, schedule: Q04DX003 (ip), vehicle: saline
# [2] = dose: 50.0 mg/kg/injection, schedule: Q01DX001 (ip), vehicle: saline
# [3] = dose: 50.0 mg/kg/injection, schedule: Q01DX009 (ip), vehicle: saline
# [4] = dose: 50.0 mg/kg/injection, schedule: Q04DX003 (ip), vehicle: saline
# [5] = dose: 100.0 mg/kg/injection, schedule: Q01DX001 (ip), vehicle: saline
# [6] = dose: 100.0 mg/kg/injection, schedule: Q01DX009 (ip), vehicle: saline
# [7] = dose: 100.0 mg/kg/injection, schedule: Q04DX003 (ip), vehicle: saline
# [8] = dose: 200.0 mg/kg/injection, schedule: Q04DX003 (ip), vehicle: saline
# [9] = dose: 400.0 mg/kg/injection, schedule: Q04DX003 (ip), vehicle: saline
# [10] = dose: 40.0 mg/kg/injection, schedule: Q01DX001 (ip), vehicle: saline
# [11] = dose: 100.0 mg/kg/injection, schedule: Q04DX003 (ip), vehicle: Klucel (hydroxypropylcellulose) (HPC)
# [12] = dose: 200.0 mg/kg/injection, schedule: Q04DX003 (ip), vehicle: Klucel (hydroxypropylcellulose) (HPC)
# [13] = dose: 400.0 mg/kg/injection, schedule: Q04DX003 (ip), vehicle: Klucel (hydroxypropylcellulose) (HPC)
# [14] = dose: 100.0 mg/kg/injection, schedule: Q01DX001 (ip), vehicle: other
# [15] = dose: 200.0 mg/kg/injection, schedule: Q01DX001 (ip), vehicle: other
# [16] = dose: 400.0 mg/kg/injection, schedule: Q01DX001 (ip), vehicle: other
# [17] = dose: 100.0 mg/kg/injection, schedule: Q04DX003 (ip), vehicle: saline with Tween-80
# [18] = dose: 200.0 mg/kg/injection, schedule: Q04DX003 (ip), vehicle: saline with Tween-80
# [19] = dose: 400.0 mg/kg/injection, schedule: Q04DX003 (ip), vehicle: saline with Tween-80
# [20] = dose: 200.0 mg/kg/injection, schedule: Q01DX001 (ip), vehicle: saline
# [21] = dose: 400.0 mg/kg/injection, schedule: Q01DX001 (ip), vehicle: saline
structure (smiles),measurement,setting,value
C[CH2][Ge]1([CH2]C)[CH2]CC2(CCN(CCCN(C)C)C2)C[CH2]1,T/C,"dose: 4.0 mg/kg/injection, schedule: Q01DX009 (ip), vehicle: saline",95 % of control
same,T/C,"dose: 8.0 mg/kg/injection, schedule: Q01DX009 (ip), vehicle: saline",104 % of control
same,T/C,"dose: 16.0 mg/kg/injection, schedule: Q01DX009 (ip), vehicle: saline",102 % of control
same,T/C,"dose: 25.0 mg/kg/injection, schedule: Q01DX001 (ip), vehicle: saline",92 % of control
same,T/C,"dose: 25.0 mg/kg/injection, schedule: Q01DX009 (ip), vehicle: saline",104 % of control and 107 % of control
same,T/C,"dose: 25.0 mg/kg/injection, schedule: Q04DX002 (ip), vehicle: saline",106 % of control and 111 % of control
same,T/C,[1],95 % of control
same,T/C,"dose: 32.0 mg/kg/injection, schedule: Q01DX009 (ip), vehicle: saline",104 % of control
same,T/C,[2],96 % of control
same,T/C,[3],98 % of control and 104 % of control
same,T/C,"dose: 50.0 mg/kg/injection, schedule: Q04DX002 (ip), vehicle: saline",98 % of control and 109 % of control
same,T/C,[4],91 % of control
same,T/C,"dose: 64.0 mg/kg/injection, schedule: Q01DX009 (ip), vehicle: saline",104 % of control
same,T/C,[5],110 % of control
same,T/C,[6],88 % of control and 91 % of control and 92 % of control
same,T/C,[7],95 % of control
CCCCCC(=O)C#Cc1ccccc1,T/C,"dose: 6.25 mg/kg/injection, schedule: Q01DX009 (ip), vehicle: other",90 % of control
same,T/C,"dose: 12.5 mg/kg/injection, schedule: Q01DX009 (ip), vehicle: other",95 % of control
same,T/C,"dose: 25.0 mg/kg/injection, schedule: Q01DX009 (ip), vehicle: other",94 % of control and 96 % of control
same,T/C,"dose: 50.0 mg/kg/injection, schedule: Q01DX009 (ip), vehicle: other",91 % of control
same,T/C,"dose: 100.0 mg/kg/injection, schedule: Q01DX009 (ip), vehicle: other",93 % of control and 86 % of control
Clc1ccc(-c2nn[nH]n2)cc1,T/C,"dose: 100.0 mg/kg/injection, schedule: Q04DX002 (ip), vehicle: Klucel (hydroxypropylcellulose) (HPC)",96 % of control
same,T/C,"dose: 200.0 mg/kg/injection, schedule: Q04DX002 (ip), vehicle: Klucel (hydroxypropylcellulose) (HPC)",93 % of control
CCOP(=O)(CCP(=O)(CCP(=O)(OCC)OCC)CCP(=O)(OCC)OCC)OCC,T/C,[3],94 % of control
same,T/C,[4],103 % of control
same,T/C,[6],94 % of control
same,T/C,[7],103 % of control
same,T/C,"dose: 200.0 mg/kg/injection, schedule: Q01DX009 (ip), vehicle: saline",98 % of control
same,T/C,[8],101 % of control
same,T/C,[9],98 % of control
CCN(CC)Cc1ccccn1,T/C,[1],102 % of control
same,T/C,[4],107 % of control
same,T/C,[7],96 % of control
COc1cc(/C=C/c2ccnc3ccccc23)cc(OC)c1OC,T/C,"dose: 5.0 mg/kg/injection, schedule: Q01DX001 (ip), vehicle: saline",96 % of control
same,T/C,"dose: 10.0 mg/kg/injection, schedule: Q01DX001 (ip), vehicle: saline",102 % of control
same,T/C,"dose: 20.0 mg/kg/injection, schedule: Q01DX001 (ip), vehicle: saline",102 % of control
same,T/C,[10],91 % of control
CC(=O)Nc1cccc(Cc2ccccc2)c1,T/C,"dose: 100.0 mg/kg/injection, schedule: Q01DX001 (ip), vehicle: Klucel (hydroxypropylcellulose) (HPC)",95 % of control
same,T/C,[11],100 % of control
same,T/C,"dose: 200.0 mg/kg/injection, schedule: Q01DX001 (ip), vehicle: Klucel (hydroxypropylcellulose) (HPC)",97 % of control
same,T/C,[12],103 % of control
same,T/C,"dose: 400.0 mg/kg/injection, schedule: Q01DX001 (ip), vehicle: Klucel (hydroxypropylcellulose) (HPC)",97 % of control
same,T/C,[13],108 % of control
CCCCSCCOC(=O)C1C2CCC(O2)C1C(=O)O (stereo unspecified),T/C,"dose: 12.5 mg/kg/injection, schedule: Q04DX003 (ip), vehicle: Klucel (hydroxypropylcellulose) (HPC)",95 % of control
same,T/C,"dose: 25.0 mg/kg/injection, schedule: Q04DX003 (ip), vehicle: Klucel (hydroxypropylcellulose) (HPC)",96 % of control
CC/C(=N/Nc1ccc([N+](=O)[O-])cc1[N+](=O)[O-])c1ccccc1,T/C,[14],96 % of control
same,T/C,[15],111 % of control
same,T/C,[16],91 % of control
Nc1ccnc(SCc2ccc(Cl)cc2)n1,T/C,"dose: 100.0 mg/kg/injection, schedule: Q04DX003 (ip), vehicle: gum acacia",105 % of control
same,T/C,"dose: 200.0 mg/kg/injection, schedule: Q04DX003 (ip), vehicle: gum acacia",104 % of control
same,T/C,"dose: 400.0 mg/kg/injection, schedule: Q04DX003 (ip), vehicle: gum acacia",98 % of control
CS(=O)(=O)OCCN(CCOS(C)(=O)=O)c1ccc(N=O)c(F)c1,T/C,"dose: 7.0 mg/kg/injection, schedule: Q01DX001 (ip), vehicle: saline",151 % of control
same,T/C,[10],98 % of control
same,T/C,"dose: 80.0 mg/kg/injection, schedule: Q01DX001 (ip), vehicle: saline",93 % of control
COc1cccc2c1CCC1C2CCC2(O)CC(=O)CCC12C (stereo unspecified),T/C,"dose: 100.0 mg/kg/injection, schedule: Q04DX003 (sc), vehicle: steriod suspending solution",115 % of control
same,T/C,"dose: 200.0 mg/kg/injection, schedule: Q04DX003 (sc), vehicle: steriod suspending solution",113 % of control
same,T/C,"dose: 400.0 mg/kg/injection, schedule: Q04DX003 (sc), vehicle: steriod suspending solution",113 % of control
O=C(O)CCS(=O)(=O)c1ccc(N(CCCl)CCCl)cc1,T/C,[17],107 % of control
same,T/C,[18],102 % of control
same,T/C,[19],105 % of control
COC(=O)C1(C)COP(=O)(Nc2ccc(OC)cc2)OC1 (stereo unspecified),T/C,[5],89 % of control
same,T/C,[20],89 % of control
O=[N+]([O-])c1ccc(Oc2cc(Cl)c(Cl)cc2Cl)c([N+](=O)[O-])c1,T/C,[14],90 % of control
same,T/C,"dose: 100.0 mg/kg/injection, schedule: Q04DX003 (ip), vehicle: other",98 % of control
same,T/C,[15],92 % of control
same,T/C,"dose: 200.0 mg/kg/injection, schedule: Q04DX003 (ip), vehicle: other",95 % of control
same,T/C,"dose: 222.0 mg/kg/injection, schedule: Q01DX Z (ip), vehicle: methylcellulose (MC)",100 % of control
same,T/C,"dose: 333.0 mg/kg/injection, schedule: Q01DX Z (ip), vehicle: methylcellulose (MC)",91 % of control
same,T/C,[16],89 % of control and 91 % of control
same,T/C,"dose: 400.0 mg/kg/injection, schedule: Q04DX003 (ip), vehicle: other",95 % of control
same,T/C,"dose: 500.0 mg/kg/injection, schedule: Q01DX Z (ip), vehicle: methylcellulose (MC)",91 % of control
CC(=O)Nc1ccccc1-c1ccc([N+](=O)[O-])cc1,T/C,[17],110 % of control
same,T/C,[18],101 % of control
same,T/C,[19],101 % of control
O=C(SCc1ccccc1)C(O)c1ccccc1 (stereo unspecified),T/C,[7],94 % of control
same,T/C,[8],100 % of control
same,T/C,[9],97 % of control
Oc1c(Cl)cc(N=Cc2ccc(N(CCCCl)CCCCl)cc2)cc1Cl,T/C,[11],101 % of control
same,T/C,[12],101 % of control
same,T/C,[13],102 % of control
OC(C(c1ccccc1)N1CCCCC1)C(O)(c1ccccc1)c1ccccc1 (stereo unspecified),T/C,"dose: 100.0 mg/kg/injection, schedule: Q01DX001 (ip), vehicle: saline sonified",97 % of control
same,T/C,"dose: 200.0 mg/kg/injection, schedule: Q01DX001 (ip), vehicle: saline sonified",108 % of control
same,T/C,"dose: 400.0 mg/kg/injection, schedule: Q01DX001 (ip), vehicle: saline sonified",93 % of control
COC1(c2ccccc2)OC(C(C)(C)C)=NC1(C)C (stereo unspecified),T/C,[17],92 % of control
same,T/C,[18],108 % of control
Cc1ncc(Br)c(C(=O)O)n1,T/C,[2],101 % of control
same,T/C,[5],98 % of control
same,T/C,"dose: 100.0 mg/kg/injection, schedule: Q01DX009 (ip), vehicle: Klucel (hydroxypropylcellulose) (HPC)",106 % of control
same,T/C,[20],95 % of control
same,T/C,"dose: 200.0 mg/kg/injection, schedule: Q01DX009 (ip), vehicle: Klucel (hydroxypropylcellulose) (HPC)",113 % of control
same,T/C,[21],90 % of control
same,T/C,"dose: 400.0 mg/kg/injection, schedule: Q01DX009 (ip), vehicle: Klucel (hydroxypropylcellulose) (HPC)",110 % of control
ClC1(Cl)c2ccccc2-c2ccccc21,T/C,[5],103 % of control
same,T/C,[20],113 % of control
same,T/C,[21],110 % of control
COc1ccc(C(=O)CBr)cc1OC,T/C,"dose: 100.0 mg/kg/injection, schedule: Q01DX001 (ip), vehicle: carboxymethylcellulose (CMC)",96 % of control
